Assay results published in patent US20100099762A1, “COMBINATION THERAPY” (THE MENTAL HEALTH RESEARCH INSTITUTE OF VICTORIA, priority 2006, published 2010).

Tests used:
[1] = in vivo; cited from earlier work
total glutathione levels = test: Total glutathione in striatum and liver of rats after CHX depletion; assay type: in vivo, Sprague-Dawley rats; conditions: 400 mg/kg i.p. 90 minutes after CHX 75 mg/kg; killed 1 hour after treatment
Method: Male Sprague-Dawley rats aged nine weeks and weighing an average of 390 g, were used in the study. Animals were maintained on a twelve hour light-dark cycle with water and food ad libitum. Two animals were housed per cage with room temperature maintained at 22° C.
All pharmacological agents were administered by intraperitoneal injection (i.p.) in a volume of 1 ml/kg, except where otherwise stated. All agents were prepared using saline as a diluent. Brain GSH depletion was performed using cyclohexene-1-one (CHX), administered at 75 mg/kg. Animals were returned to their cage for 90 minutes prior to administration of N-acetyl cysteine (NAC) or N-acetyl cysteine amide (NACA or “AD4”). Animals were killed by decapitation 1 hour after NACA or NAC treatment.
Frontal cortex, striatum and liver samples were immediately excised on ice, weighed and sonicated in SSA buffer (5% sulfosalicylic acid in 100 mM disodium hydrogen orthophosphate, 100 mM sodium dihydrogen orthophosphate and 1 mM EDTA, pH 7.5, 5 mL/g wet tissue). The samples were subsequently centrifuged (22×10^3 g for 10 minutes, 4° C.) and the […] was taken and frozen at −80° C. until analysed.
Total glutathione levels (μmol GSH/gram tissue) were determined in all samples. Samples were assayed according to Baker et al. (1990). Reduced glutathione standards ranging from 0 to 320 ρmol of GSH in 50 μL were prepared in a background buffer identical to the samples (SSA buffer) and then treated in parallel with samples. 50 μl of sample or standard was placed on a 96-well microtiter plate with 100 μL of assay reagent (final concentration in well; 0.15 mM DTNB, 0.2 mM NADPH, 1.0 U glutathione reductase/mL). Plates were assayed for a total of 2 minutes at 414 nm using a Multiskan MCC/340 MK II plate reader and Genesis V3.05 computer software. All chemicals were purchased from Sigma-Aldrich. Statistical evaluation of the data was conducted using analysis of variance (ANOVA).

CC(=O)N[C@@H](CS)C(=O)O [NAC, N-acetyl cysteine]
Human dosing without adverse effects [1]: up to 5 g/day | Total glutathione levels in the brain striatum after CHX depletion (total glutathione levels): rescue | Total glutathione levels in the liver after CHX depletion (total glutathione levels): rescue
